Laboratory results taken from the CheMixHub drug solubility set.

Test: xn = mol fraction of the nth substance listed, in the solute-free solvent

Cc1ncc(C[n+]2csc(CCO)c2C)c(N)n1.O=[N+]([O-])[O-] + O + CC(C)O
solubility (g/100 g solution)
Details | 278.15 K | 283.15 K | 288.15 K | 293.15 K | 298.15 K | 303.15 K | 308.15 K | 313.15 K
x2 = 0.3 | 0.0345 | 0.0413 | 0.051 | 0.06 | 0.0744 | 0.093 | 0.115 | 0.151
x2 = 0.4 | 0.0937 | 0.119 | 0.15 | 0.172 | 0.199 | 0.243 | 0.297 | 0.385
x2 = 0.5 | 0.228 | 0.257 | 0.305 | 0.372 | 0.453 | 0.573 | 0.715 | 0.897
x2 = 0.6 | 0.364 | 0.439 | 0.552 | 0.705 | 0.814 | 1.01 | 1.28 | 1.57
x2 = 0.7 | 0.637 | 0.765 | 0.916 | 1.12 | 1.38 | 1.71 | 2.11 | 2.61
x2 = 0.8 | 0.968 | 1.15 | 1.39 | 1.74 | 2.15 | 2.63 | 3.14 | 3.84
x2 = 0.9 | 1.18 | 1.47 | 1.83 | 2.33 | 2.85 | 3.48 | 4.26 | 5.2

S=c1[nH]ncs1 + CO + O
solubility (g/100 g solution)
Details | 278.15 K | 283.15 K | 288.15 K | 293.15 K | 298.15 K | 303.15 K | 308.15 K | 313.15 K | 318.15 K | 323.15 K
x2 = 0.1 | 0.5 | 0.691 | 0.906 | 1.21 | 1.6 | 2.03 | 2.55 | 3.35 | 4.36 | 5.36
x2 = 0.2 | 0.926 | 1.24 | 1.54 | 2.06 | 2.68 | 3.38 | 4.35 | 5.66 | 6.96 | 8.64
x2 = 0.3 | 1.39 | 1.97 | 2.65 | 3.39 | 4.42 | 5.59 | 7.12 | 9.03 | 11.2 | 13.9
x2 = 0.4 | 2.53 | 3.26 | 4.24 | 5.33 | 6.73 | 8.48 | 10.5 | 13.2 | 16.4 | 19.8
x2 = 0.5 | 3.89 | 4.96 | 6.04 | 7.5 | 9.43 | 11.5 | 13.7 | 16.8 | 20 | 23.9
x2 = 0.6 | 5.2 | 6.6 | 8.03 | 9.72 | 11.6 | 14 | 17 | 19.9 | 23.3 | 27.5
x2 = 0.7 | 6.84 | 8.43 | 10.2 | 12 | 14.1 | 16.4 | 19.3 | 22.6 | 26.2 | 29.6
x2 = 0.8 | 8.37 | 10.1 | 11.9 | 13.8 | 16 | 18.5 | 21.4 | 24.6 | 28.2 | 31.5
x2 = 0.9 | 10.1 | 11.9 | 13.7 | 15.8 | 18 | 20.5 | 23.4 | 26.6 | 30 | 33.2

CC(C)OC(=O)C(C)NP(=O)(OCC1OC(n2ccc(=O)[nH]c2=O)C(C)(F)C1O)Oc1ccccc1 (configuration not stated) + CCO + O
solubility (g/100 g solution)
Details | 278.15 K | 283.15 K | 288.15 K | 293.15 K | 298.15 K | 303.15 K | 308.15 K | 313.15 K | 318.15 K
x2 = 0.04165 | 0.327 | 0.484 | 0.653 | 0.882 | 1.17 | 1.57 | 2.08 | 2.71 | 3.42
x2 = 0.08908 | 1.42 | 2.02 | 2.65 | 3.46 | 4.44 | 5.7 | 7.2 | 9.04 | 10.9
x2 = 0.1436 | 3.58 | 4.78 | 6.12 | 7.78 | 9.72 | 12.1 | 14.7 | 17.7 | 21
x2 = 0.2068 | 5.74 | 7.67 | 9.66 | 12 | 14.8 | 17.8 | 21.3 | 25.1 | 29
x2 = 0.2812 | 7.44 | 9.76 | 12.2 | 14.9 | 18.1 | 21.6 | 25.5 | 29.7 | 33.9
x2 = 0.3698 | 9.07 | 11.6 | 14.4 | 17.3 | 20.7 | 24.9 | 29 | 33.2 | 37.7
x2 = 0.4772 | 11 | 13.7 | 16.6 | 20.2 | 24.2 | 28.3 | 32.5 | 36.8 | 41.3
x2 = 0.6101 | 13.9 | 17 | 20.8 | 24.3 | 28.5 | 32.3 | 37.2 | 41.6 | 46.3
x2 = 0.7788 | 17.6 | 20.9 | 24.6 | 28.8 | 33.3 | 37.8 | 42.4 | 47 | 51.6
